Measurements as given in patent US20240082416A1, “AMATOXIN ANALOGS AND USES THEREOF” (THE UNIVERSITY OF BRITISH COLUMBIA, priority 2020, published 2024).
Starred links: 1 amine or outer side, 2 acyl side, 3 side chain; linkers in the order of their positions; H or OH if unused. Positions of bridges follow the written chain, without caps; N, C: chain ends. Non-standard residues stand in square brackets, D forms with d. Residues, ends and D or L forms follow the SMILES beside them. Trp(2-yl) = O=C([C@H](Cc1c([*:3])[nH]c2ccccc12)N[*:1])[*:2]; Pro(trans-4-guanidino) = N=C(N)N[C@H]1CN[C@H](C(=O)O)C1; Pro(4R-SH) = O=C([C@@H]1C[C@@H](S[*:3])CN1[*:1])[*:2]; Ile(4R-OH,5-OH) = C[C@H]([C@H](N)C(=O)O)[C@@H](O)CO; X1 = N#C[C@@H]1C[C@@H](C(=O)[*:2])N([*:1])C1; Pro(4R-NH2) = N[C@H]1CN[C@H](C(=O)O)C1

Assay: Cell viability assay (BrdU incorporation) on HEK293-OATP1B3 cells
Format: cell-based, human
Conditions: human, HEK293 cells overexpressing OATP1B3 (HEK293-OATP1B3); highest used concentration of 1 μM; HEK293-OATP1B3 cells
Method: . HEK293 and HEK-OATP1B3 cells were plated at 2.5×10^3 cells/well in a 1:1 mixture of Ham's F12 with DMEM containing 10% charcoal-stripped fetal calf serum (FCS) onto poly-D-lysine-coated 96-well plates and grown for 24 hours. Subsequently, cells were incubated with amanitin analogs at 8 different concentrations (1×10^−6 M to 1.28×10^−11 M, serial 1:5 dilutions). Following 96 h of drug exposure, cell viability was determined by a BrdU incorporation assay (Cell Proliferation ELISA, BrdU, Roche) and chemiluminescence was measured using a FLUOstar Optima plate reader (BMG LABtech). Data analysis was performed with GraphPad Prism 8 (GraphPad Software, Inc., La Jolla, CA) software to plot curve fits.

Row | Structure (SMILES) | viability at 96 h, 1 µM [%]
1 | CC[C@H](C)[C@@H]1NC(=O)CNC(=O)[C@@H]2Cc3c([nH]c4ccccc34)SC[C@H](NC(=O)CNC1=O)C(=O)N[C@@H](CC(N)=O)C(=O)N1C[C@H](NC(=N)N)C[C@H]1C(=O)N[C@@H]([C@@H](C)[C@@H](O)CO)C(=O)N2 [Compound 7, Gdn-Pro-amanitin] (cyclo(CN[Pro(trans-4-guanidino)][Ile(4R-OH,5-OH)][Trp(2-yl)]GIG); thioether 1-5) | 86
2 | CC[C@H](C)[C@@H]1NC(=O)CNC(=O)[C@@H]2Cc3c([nH]c4ccccc34)SC[C@H](NC(=O)CNC1=O)C(=O)N[C@@H](CC(N)=O)C(=O)N1C[C@H](S)C[C@H]1C(=O)N[C@@H]([C@@H](C)[C@@H](O)CO)C(=O)N2 [Compound 5, SH-Pro-amanitin] (cyclo(CN[Pro(4R-SH)][Ile(4R-OH,5-OH)][Trp(2-yl)]GIG); thioether 1-5) | 50
3 | CC[C@H](C)[C@@H]1NC(=O)CNC(=O)[C@@H]2Cc3c([nH]c4ccccc34)SC[C@H](NC(=O)CNC1=O)C(=O)N[C@@H](CC(N)=O)C(=O)N1C[C@H](N)C[C@H]1C(=O)N[C@@H]([C@@H](C)[C@@H](O)CO)C(=O)N2 [Compound 6, NH2-Pro-amanitin] (cyclo(CN[Pro(4R-NH2)][Ile(4R-OH,5-OH)][Trp(2-yl)]GIG); thioether 1-5) | 33
4 | CC[C@H](C)[C@@H]1NC(=O)CNC(=O)[C@@H]2Cc3c([nH]c4ccccc34)SC[C@H](NC(=O)CNC1=O)C(=O)N[C@@H](CC(N)=O)C(=O)N1C[C@H](C#N)C[C@H]1C(=O)N[C@@H]([C@@H](C)[C@@H](O)CO)C(=O)N2 [Compound 4, CN-Pro-amanitin] (cyclo(CN[X1][Ile(4R-OH,5-OH)][Trp(2-yl)]GIG); thioether 1-5) | 43
